Results from ChEMBL document CHEMBL4507293 (2021).

Key:
[1] = test system: Tyrosine-protein kinase ABL1 (Homo sapiens), P00519 [Q252H]; conditions: Compound concentration 100.0 nM
[2] = biological target: Mitogen-activated protein kinase kinase kinase 5 (Homo sapiens) (UniProt Q99683); conditions: Compound concentration 100.0 nM
[3] = biological target: Aurora kinase A (Homo sapiens) (UniProt O14965); conditions: Compound concentration 100.0 nM
[4] = biological target: Calcium/calmodulin-dependent protein kinase type II subunit beta (Homo sapiens) (UniProt Q13554); conditions: Compound concentration 100.0 nM
[5] = biological target: Peripheral plasma membrane protein CASK (Homo sapiens) (UniProt O14936); conditions: Compound concentration 100.0 nM
[6] = biological target: Cyclin-dependent kinase 8 (Homo sapiens) (UniProt P49336); conditions: Compound concentration 100.0 nM
[7] = biological target: Cyclin-dependent kinase-like 1 (Homo sapiens) (UniProt Q00532); conditions: Compound concentration 100.0 nM
[8] = biological target: Dual specificity protein kinase CLK2 (Homo sapiens) (UniProt P49760); conditions: Compound concentration 100.0 nM
[9] = biological target: Casein kinase II subunit alpha' (Homo sapiens) (UniProt P19784); conditions: Compound concentration 100.0 nM
[10] = biological target: Serine/threonine-protein kinase DCLK1 (Homo sapiens) (UniProt O15075); conditions: Compound concentration 100.0 nM
[11] = biological target: Ephrin type-A receptor 5 (Homo sapiens) (UniProt P54756); conditions: Compound concentration 100.0 nM
[12] = biological target: Ephrin type-B receptor 1 (Homo sapiens) (UniProt P54762); conditions: Compound concentration 100.0 nM
[13] = biological target: Receptor tyrosine-protein kinase erbB-4 (Homo sapiens) (UniProt Q15303); conditions: Compound concentration 100.0 nM
[14] = biological target: Mitogen-activated protein kinase 1 (Homo sapiens) (UniProt P28482); conditions: Compound concentration 100.0 nM
[15] = biological target: Mitogen-activated protein kinase 7 (Homo sapiens) (UniProt Q13164); conditions: Compound concentration 100.0 nM
[16] = biological target: Fibroblast growth factor receptor 4 (Homo sapiens) (UniProt P22455); conditions: Compound concentration 100.0 nM
[17] = test system: Receptor-type tyrosine-protein kinase FLT3 (Homo sapiens), P36888 [D835V]; conditions: Compound concentration 100.0 nM
[18] = biological target: Cyclin-G-associated kinase (Homo sapiens) (UniProt O14976); conditions: Compound concentration 100.0 nM
[19] = biological target: Rhodopsin kinase GRK7 (Homo sapiens) (UniProt Q8WTQ7); conditions: Compound concentration 100.0 nM
Chain of Rhodopsin kinase GRK7 (Homo sapiens) (Q8WTQ7 whole entry): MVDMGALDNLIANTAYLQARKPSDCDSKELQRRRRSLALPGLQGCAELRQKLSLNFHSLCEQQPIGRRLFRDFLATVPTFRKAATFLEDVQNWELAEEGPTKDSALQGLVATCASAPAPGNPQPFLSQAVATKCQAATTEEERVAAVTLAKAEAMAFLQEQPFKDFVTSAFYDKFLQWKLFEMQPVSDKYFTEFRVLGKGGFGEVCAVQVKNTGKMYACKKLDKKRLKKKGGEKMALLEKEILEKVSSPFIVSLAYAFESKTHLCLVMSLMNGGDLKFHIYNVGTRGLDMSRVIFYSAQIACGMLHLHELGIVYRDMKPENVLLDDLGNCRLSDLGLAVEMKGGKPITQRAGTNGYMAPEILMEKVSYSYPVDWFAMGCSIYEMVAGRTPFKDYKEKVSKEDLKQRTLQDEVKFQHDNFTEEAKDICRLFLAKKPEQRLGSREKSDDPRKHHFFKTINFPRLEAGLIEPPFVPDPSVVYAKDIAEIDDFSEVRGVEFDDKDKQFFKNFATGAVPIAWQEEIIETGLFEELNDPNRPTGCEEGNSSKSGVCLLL

[20] = biological target: Interleukin-1 receptor-associated kinase 1 (Homo sapiens) (UniProt P51617); conditions: Compound concentration 100.0 nM
[21] = biological target: Misshapen-like kinase 1 (Homo sapiens) (UniProt Q8N4C8); conditions: Compound concentration 100.0 nM
[22] = biological target: Mitogen-activated protein kinase kinase kinase 11 (Homo sapiens) (UniProt Q16584); conditions: Compound concentration 100.0 nM
[23] = biological target: Serine/threonine-protein kinase mTOR (Homo sapiens) (UniProt P42345); conditions: Compound concentration 100.0 nM
[24] = biological target: Myosin light chain kinase, smooth muscle (Homo sapiens) (UniProt Q15746); conditions: Compound concentration 100.0 nM
[25] = biological target: Platelet-derived growth factor receptor alpha (Homo sapiens) (UniProt P16234); conditions: Compound concentration 100.0 nM
[26] = test system: Phosphatidylinositol 4,5-bisphosphate 3-kinase catalytic subunit alpha isoform (Homo sapiens), P42336 [I800L]; conditions: Compound concentration 100.0 nM
[27] = biological target: Phosphatidylinositol 4,5-bisphosphate 3-kinase catalytic subunit delta isoform (Homo sapiens) (UniProt O00329); conditions: Compound concentration 100.0 nM
[28] = biological target: Phosphatidylinositol 4,5-bisphosphate 3-kinase catalytic subunit gamma isoform (Homo sapiens) (UniProt P48736); conditions: Compound concentration 100.0 nM
[29] = biological target: Protein kinase C delta type (Homo sapiens) (UniProt Q05655); conditions: Compound concentration 100.0 nM
[30] = biological target: Protein kinase C eta type (Homo sapiens) (UniProt P24723); conditions: Compound concentration 100.0 nM
Chain of Protein kinase C eta type (Homo sapiens) (P24723 whole entry): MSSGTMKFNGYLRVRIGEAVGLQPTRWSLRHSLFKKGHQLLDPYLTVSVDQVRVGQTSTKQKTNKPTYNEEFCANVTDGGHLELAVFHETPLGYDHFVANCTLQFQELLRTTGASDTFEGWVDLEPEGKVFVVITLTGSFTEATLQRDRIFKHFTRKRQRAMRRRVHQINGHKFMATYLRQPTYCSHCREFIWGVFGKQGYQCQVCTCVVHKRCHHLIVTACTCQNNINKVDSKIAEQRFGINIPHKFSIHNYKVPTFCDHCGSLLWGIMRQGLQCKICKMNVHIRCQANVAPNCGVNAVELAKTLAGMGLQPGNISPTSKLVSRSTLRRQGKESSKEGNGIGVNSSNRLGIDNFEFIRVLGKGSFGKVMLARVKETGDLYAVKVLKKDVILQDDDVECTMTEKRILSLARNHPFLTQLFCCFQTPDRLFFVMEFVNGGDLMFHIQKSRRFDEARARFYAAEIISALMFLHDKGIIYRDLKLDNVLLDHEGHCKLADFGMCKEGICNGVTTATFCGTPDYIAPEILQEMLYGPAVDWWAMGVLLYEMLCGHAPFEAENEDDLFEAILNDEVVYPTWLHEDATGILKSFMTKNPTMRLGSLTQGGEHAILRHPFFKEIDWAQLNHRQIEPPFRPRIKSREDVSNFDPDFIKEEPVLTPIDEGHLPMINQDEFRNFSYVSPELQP

[31] = biological target: Serine/threonine-protein kinase D2 (Homo sapiens) (UniProt Q9BZL6); conditions: Compound concentration 100.0 nM
[32] = biological target: cGMP-dependent protein kinase 2 (Homo sapiens) (UniProt Q13237); conditions: Compound concentration 100.0 nM
[33] = biological target: Proto-oncogene tyrosine-protein kinase receptor Ret (Homo sapiens) (UniProt P07949); conditions: Compound concentration 100.0 nM
Chain of Proto-oncogene tyrosine-protein kinase receptor Ret (Homo sapiens) (P07949 whole entry): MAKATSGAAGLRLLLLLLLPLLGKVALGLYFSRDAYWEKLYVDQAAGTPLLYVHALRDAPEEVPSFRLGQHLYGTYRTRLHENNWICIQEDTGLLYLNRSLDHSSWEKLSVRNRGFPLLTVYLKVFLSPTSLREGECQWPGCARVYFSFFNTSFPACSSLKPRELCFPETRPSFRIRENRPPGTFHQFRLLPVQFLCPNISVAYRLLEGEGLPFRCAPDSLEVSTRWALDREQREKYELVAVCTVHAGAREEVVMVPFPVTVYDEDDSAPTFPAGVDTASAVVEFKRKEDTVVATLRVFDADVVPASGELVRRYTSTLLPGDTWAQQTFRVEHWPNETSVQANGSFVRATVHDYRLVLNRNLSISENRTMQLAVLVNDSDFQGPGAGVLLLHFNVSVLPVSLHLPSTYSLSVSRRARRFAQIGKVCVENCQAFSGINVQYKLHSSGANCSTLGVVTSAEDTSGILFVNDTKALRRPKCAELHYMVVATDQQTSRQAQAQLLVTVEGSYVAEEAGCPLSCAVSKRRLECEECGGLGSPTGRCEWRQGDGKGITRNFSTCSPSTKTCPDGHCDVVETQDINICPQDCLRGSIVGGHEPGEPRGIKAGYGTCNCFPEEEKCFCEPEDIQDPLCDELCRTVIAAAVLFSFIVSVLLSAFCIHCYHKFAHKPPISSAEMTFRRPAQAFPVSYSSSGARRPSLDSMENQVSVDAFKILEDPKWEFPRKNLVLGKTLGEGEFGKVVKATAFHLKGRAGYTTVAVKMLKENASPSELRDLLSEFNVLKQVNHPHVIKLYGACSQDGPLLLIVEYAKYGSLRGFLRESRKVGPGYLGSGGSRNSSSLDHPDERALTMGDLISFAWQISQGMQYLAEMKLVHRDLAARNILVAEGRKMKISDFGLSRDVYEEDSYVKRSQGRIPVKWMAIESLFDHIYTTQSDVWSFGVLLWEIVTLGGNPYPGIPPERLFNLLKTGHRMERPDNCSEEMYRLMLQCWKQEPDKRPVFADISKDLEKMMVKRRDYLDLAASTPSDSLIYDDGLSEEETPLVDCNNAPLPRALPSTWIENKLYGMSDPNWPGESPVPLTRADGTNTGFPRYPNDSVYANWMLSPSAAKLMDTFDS

[34] = test system: Proto-oncogene tyrosine-protein kinase receptor Ret (Homo sapiens), P07949 [V804L]; conditions: Compound concentration 100.0 nM
Chain of Proto-oncogene tyrosine-protein kinase receptor Ret (Homo sapiens), P07949 [V804L] (P07949 whole entry V804L): as the sequence (P07949 whole entry) above, with V804L counted along it

[35] = biological target: Ribosomal protein S6 kinase alpha-3 (Homo sapiens) (UniProt P51812); conditions: Compound concentration 100.0 nM
Chain of Ribosomal protein S6 kinase alpha-3 (Homo sapiens) (P51812 whole entry): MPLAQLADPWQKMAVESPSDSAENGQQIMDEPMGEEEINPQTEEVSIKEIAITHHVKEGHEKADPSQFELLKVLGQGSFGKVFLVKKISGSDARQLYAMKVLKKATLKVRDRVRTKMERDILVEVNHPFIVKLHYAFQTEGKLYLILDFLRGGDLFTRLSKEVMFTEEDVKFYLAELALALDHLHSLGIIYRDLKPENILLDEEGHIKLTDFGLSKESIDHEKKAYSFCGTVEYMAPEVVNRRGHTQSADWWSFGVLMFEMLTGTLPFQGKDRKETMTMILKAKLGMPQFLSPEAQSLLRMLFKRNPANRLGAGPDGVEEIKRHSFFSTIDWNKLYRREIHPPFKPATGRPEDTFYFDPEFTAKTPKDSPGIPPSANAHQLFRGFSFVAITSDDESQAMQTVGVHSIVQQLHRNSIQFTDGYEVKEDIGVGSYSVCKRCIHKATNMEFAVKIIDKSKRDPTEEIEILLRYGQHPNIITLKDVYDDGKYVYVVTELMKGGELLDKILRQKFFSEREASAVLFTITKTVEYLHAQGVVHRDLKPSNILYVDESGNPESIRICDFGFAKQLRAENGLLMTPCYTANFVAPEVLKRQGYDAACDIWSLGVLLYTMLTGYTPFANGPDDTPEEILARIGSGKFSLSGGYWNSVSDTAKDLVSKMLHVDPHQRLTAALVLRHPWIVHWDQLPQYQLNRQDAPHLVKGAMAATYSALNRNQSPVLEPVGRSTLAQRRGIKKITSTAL

[36] = biological target: Ribosomal protein S6 kinase alpha-2 (Homo sapiens) (UniProt Q15349); conditions: Compound concentration 100.0 nM
[37] = biological target: Ribosomal protein S6 kinase alpha-6 (Homo sapiens) (UniProt Q9UK32); conditions: Compound concentration 100.0 nM
[38] = biological target: Ribosomal protein S6 kinase beta-1 (Homo sapiens) (UniProt P23443); conditions: Compound concentration 100.0 nM
[39] = biological target: Tyrosine-protein kinase Srms (Homo sapiens) (UniProt Q9H3Y6); conditions: Compound concentration 100.0 nM
[40] = biological target: Mitogen-activated protein kinase kinase kinase 7 (Homo sapiens) (UniProt O43318); conditions: Compound concentration 100.0 nM
[41] = biological target: Testis-specific serine/threonine-protein kinase 1 (Homo sapiens) (UniProt Q9BXA7); conditions: Compound concentration 100.0 nM
Chain of Testis-specific serine/threonine-protein kinase 1 (Homo sapiens) (Q9BXA7 whole entry): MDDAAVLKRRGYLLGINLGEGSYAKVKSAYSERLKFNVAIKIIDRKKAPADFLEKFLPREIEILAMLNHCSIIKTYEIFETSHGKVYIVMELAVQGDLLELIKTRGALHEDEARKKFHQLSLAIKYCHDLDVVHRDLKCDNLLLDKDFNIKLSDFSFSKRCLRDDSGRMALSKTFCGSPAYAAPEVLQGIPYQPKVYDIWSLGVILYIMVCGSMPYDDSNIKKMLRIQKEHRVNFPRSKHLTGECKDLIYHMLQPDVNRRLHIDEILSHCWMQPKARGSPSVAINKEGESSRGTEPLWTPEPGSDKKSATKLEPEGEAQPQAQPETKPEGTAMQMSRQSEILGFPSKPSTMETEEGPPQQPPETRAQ

[42] = biological target: Serine/threonine-protein kinase WNK1 (Homo sapiens) (UniProt Q9H4A3); conditions: Compound concentration 100.0 nM
[43] = biological target: Serine/threonine-protein kinase 32A (Homo sapiens) (UniProt Q8WU08); conditions: Compound concentration 100.0 nM
[44] = biological target: Histamine H1 receptor (Homo sapiens) (UniProt P35367); conditions: Compound concentration 10.0 uM
[45] = biological target: Histamine H4 receptor (Homo sapiens) (UniProt Q9H3N8); conditions: Compound concentration 10.0 uM

Chain of Mitogen-activated protein kinase kinase kinase 5 (Homo sapiens) (Q99683 whole entry): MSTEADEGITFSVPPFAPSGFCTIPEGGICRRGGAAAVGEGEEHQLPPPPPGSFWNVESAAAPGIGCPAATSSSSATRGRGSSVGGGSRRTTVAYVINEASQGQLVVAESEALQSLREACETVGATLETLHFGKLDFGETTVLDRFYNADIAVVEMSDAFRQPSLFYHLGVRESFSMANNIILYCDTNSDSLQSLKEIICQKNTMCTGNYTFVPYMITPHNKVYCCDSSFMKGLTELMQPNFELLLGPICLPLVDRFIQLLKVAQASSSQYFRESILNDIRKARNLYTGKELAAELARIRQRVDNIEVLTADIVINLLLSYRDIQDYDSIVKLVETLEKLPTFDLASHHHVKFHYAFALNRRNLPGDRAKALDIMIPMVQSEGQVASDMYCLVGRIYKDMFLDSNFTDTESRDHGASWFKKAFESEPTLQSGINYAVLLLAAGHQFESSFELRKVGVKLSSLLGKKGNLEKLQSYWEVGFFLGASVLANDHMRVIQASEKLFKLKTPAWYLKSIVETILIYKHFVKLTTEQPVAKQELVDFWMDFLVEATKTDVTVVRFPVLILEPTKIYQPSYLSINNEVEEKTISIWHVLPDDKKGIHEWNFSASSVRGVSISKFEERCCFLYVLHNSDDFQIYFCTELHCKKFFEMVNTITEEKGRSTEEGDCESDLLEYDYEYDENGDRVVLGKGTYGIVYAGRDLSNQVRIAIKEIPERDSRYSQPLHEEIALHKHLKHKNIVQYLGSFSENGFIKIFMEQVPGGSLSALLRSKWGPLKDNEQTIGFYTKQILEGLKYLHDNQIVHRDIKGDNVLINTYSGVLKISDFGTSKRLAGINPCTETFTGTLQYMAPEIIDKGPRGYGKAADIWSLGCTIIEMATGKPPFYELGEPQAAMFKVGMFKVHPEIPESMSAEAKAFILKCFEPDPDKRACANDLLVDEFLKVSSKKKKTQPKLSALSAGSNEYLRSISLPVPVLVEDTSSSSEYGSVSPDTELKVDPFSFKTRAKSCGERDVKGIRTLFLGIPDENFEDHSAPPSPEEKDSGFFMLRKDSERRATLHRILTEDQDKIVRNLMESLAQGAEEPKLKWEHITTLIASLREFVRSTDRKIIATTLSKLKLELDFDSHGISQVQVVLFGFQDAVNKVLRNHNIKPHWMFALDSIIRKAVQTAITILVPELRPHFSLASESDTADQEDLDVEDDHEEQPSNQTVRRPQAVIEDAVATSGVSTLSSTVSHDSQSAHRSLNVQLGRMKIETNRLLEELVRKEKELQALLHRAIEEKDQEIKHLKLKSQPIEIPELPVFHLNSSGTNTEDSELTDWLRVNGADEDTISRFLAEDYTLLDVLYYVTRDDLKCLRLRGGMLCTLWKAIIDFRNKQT

CC(C)CC(=O)N1CCc2nc(-c3ccc(Br)cc3)nc(N(C)Cc3ccccc3)c2C1 [THPP-1-NC]
inactive: residual activity [1] 53% | residual activity [2] 91% | residual activity [3] 72% | residual activity [4] 100% | residual activity [5] 81% | residual activity [6] 82% | residual activity [7] 63% | residual activity [8] 100% | residual activity [9] 88% | residual activity [10] 100% | residual activity [11] 89% | residual activity [12] 100% | residual activity [13] 94% | residual activity [14] 93% | residual activity [15] 100% | residual activity [16] 98% | residual activity [17] 95% | residual activity [18] 100% | residual activity [19] 74% | residual activity [20] 100% | residual activity [21] 100% | residual activity [22] 100% | residual activity [23] 89% | residual activity [24] 86% | residual activity [25] 98% | residual activity [26] 98% | residual activity [27] 82% | residual activity [28] 100% | residual activity [29] 100% | residual activity [30] 94% | residual activity [31] 100% | residual activity [32] 100% | residual activity [33] 68% | residual activity [34] 100% | residual activity [35] 67% | residual activity [36] 100% | residual activity [37] 100% | residual activity [38] 100% | residual activity [39] 100% | residual activity [40] 78% | residual activity [41] 99% | residual activity [42] 100% | residual activity [43] 94% | inhibition [44] 12.6% | inhibition [45] -7.78%

COCCOc1nc(-c2ccc(Cl)nc2)nc2c1CN(C(=O)c1ncn3ccccc13)CC2 [THPP-1]
inactive: residual activity [1] 74% | residual activity [2] 84% | residual activity [3] 81% | residual activity [4] 100% | residual activity [5] 95% | residual activity [6] 100% | residual activity [7] 61% | residual activity [8] 100% | residual activity [9] 100% | residual activity [10] 100% | residual activity [11] 99% | residual activity [12] 100% | residual activity [13] 80% | residual activity [14] 95% | residual activity [15] 100% | residual activity [16] 90% | residual activity [17] 100% | residual activity [18] 100% | residual activity [19] 91% | residual activity [20] 100% | residual activity [21] 100% | residual activity [22] 100% | residual activity [23] 97% | residual activity [24] 70% | residual activity [25] 100% | residual activity [26] 66% | residual activity [27] 94% | residual activity [28] 100% | residual activity [29] 100% | residual activity [30] 97% | residual activity [31] 100% | residual activity [32] 100% | residual activity [33] 88% | residual activity [34] 100% | residual activity [35] 82% | residual activity [36] 100% | residual activity [37] 100% | residual activity [38] 100% | residual activity [39] 100% | residual activity [40] 93% | residual activity [41] 100% | residual activity [42] 100% | residual activity [43] 83% | inhibition [44] 23.9% | inhibition [45] -6.39%
